How the values were obtained:
TLR7 receptor = biological target: T1, TLR7 receptor (Homo sapiens, UniProt Q9NYK1); test: PBL/HCV replicon bioassay; type: cell-based; conditions: concentration applied to PBL (24 h) giving 50% reduction of HCV replicon levels (luciferase) after transfer of PBL culture medium to Huh-7 replicon cells (48 h)
T1 construct: PBL contain as a subpopulation plasmacytoid dendritic cells which are the natural interferon producing cells; endogenous in cells; host or cells: peripheral blood lymphocytes (PBL), containing plasmacytoid dendritic cells
T1 sequence (Q9NYK1 27-1049): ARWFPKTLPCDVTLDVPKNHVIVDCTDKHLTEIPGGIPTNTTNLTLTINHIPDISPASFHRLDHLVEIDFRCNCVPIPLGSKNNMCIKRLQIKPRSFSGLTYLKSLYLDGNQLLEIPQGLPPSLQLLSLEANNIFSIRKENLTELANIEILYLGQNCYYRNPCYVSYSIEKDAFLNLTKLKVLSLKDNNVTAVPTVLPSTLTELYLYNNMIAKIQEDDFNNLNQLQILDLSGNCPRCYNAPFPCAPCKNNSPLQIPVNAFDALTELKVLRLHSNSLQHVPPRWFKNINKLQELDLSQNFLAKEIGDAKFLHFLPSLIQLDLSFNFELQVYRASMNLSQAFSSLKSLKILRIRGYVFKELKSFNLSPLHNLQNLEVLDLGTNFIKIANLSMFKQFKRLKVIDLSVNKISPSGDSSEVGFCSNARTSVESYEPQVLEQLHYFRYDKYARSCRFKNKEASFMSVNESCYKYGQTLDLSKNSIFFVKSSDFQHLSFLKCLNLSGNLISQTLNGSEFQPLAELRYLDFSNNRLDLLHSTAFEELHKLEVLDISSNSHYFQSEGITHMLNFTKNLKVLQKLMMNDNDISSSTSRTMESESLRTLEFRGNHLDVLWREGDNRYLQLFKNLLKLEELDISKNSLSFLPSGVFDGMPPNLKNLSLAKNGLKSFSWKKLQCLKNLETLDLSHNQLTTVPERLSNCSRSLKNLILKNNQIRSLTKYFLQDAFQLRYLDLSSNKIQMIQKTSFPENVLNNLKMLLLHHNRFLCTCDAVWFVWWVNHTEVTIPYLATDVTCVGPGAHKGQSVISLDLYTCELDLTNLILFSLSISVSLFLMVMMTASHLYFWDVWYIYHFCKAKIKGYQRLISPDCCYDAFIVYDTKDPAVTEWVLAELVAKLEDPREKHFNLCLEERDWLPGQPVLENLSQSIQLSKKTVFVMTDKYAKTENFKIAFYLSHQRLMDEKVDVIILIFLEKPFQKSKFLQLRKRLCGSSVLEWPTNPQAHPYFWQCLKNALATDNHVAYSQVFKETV
Procedure: PBL contain as a subpopulation plasmacytoid dendritic cells which are the natural interferon producing cells during an infection and as such are an excellent model in which to profile interferon inducers. As an extremly sensitive antiviral bioassay, supernatant taken from PBL is assayed for antiviral activity in the HCV replicon system.
The HCV replicon (Huh-5-2[I389luc-ubi-neo-NS3-3′/ET]) is an in vitro model of HCV replication in which the luciferase reporter is incorporated into HCV sequences and stably maintained in the human hepatoma cell line Huh-7. The firefly luciferase reporter is expressed as a luciferase-ubiquitin-neomycin phosphotransferase fusion protein which is cleaved by host proteases to release luciferase. The replicon also contains an internal EMCV IRES, which drives translation of HCV NS3-5B polyprotein, which harbour cell culture adapted mutations to permit high cloning efficiency. […] Firefly luciferase activity is detected using a Bright-Glo™ Luciferase Assay System manufactured by Promega.
An initial 3 fold serial dilution series of compounds in 100% DMSO is prepared from stocks. The dilution series is then further diluted 100 fold with complete RPMI-FCS. The final concentration of DMSO in the assay is thus 0.1% and that of the test compound is 1/1000 in the 100% DMSO dilution series. PBL are prepared seeded at 5×10^5/well/90 μl into the previously prepared compound containing assay plates (96 well clear bottomed TC grade) and incubated for 24 h.
LucUbiNeo HCV replicon cells are seeded at 10^4/well/90 μl. These are incubated for 24 h. After 24 h, 10 μl of medium is transferred from the PBL assay plates to the HCV replicon plates and incubated for a further 48 h.

[1] = system: all other known Toll-like Receptors; test: Selectivity for TLR7 over other Toll-like Receptors
[2] = system: MEK, CDK1, CDK2, JNK, MSK, MSK-1, SGK, AMPK, MLCK, CHK-2, PDE3, PDE4 and PDE5; test: Selectivity for TLR7 over kinases and phosphodiesterase enzymes; type: biochemical
[3] = system: MAP (mitogen-activated protein kinase); test: Selectivity for TLR7 over MAP; type: biochemical
[4] = system: HCV replicon containing cells; test: Direct response of HCV replicon containing cells to TLR agonists; type: cell-based, human; conditions: applied directly to replicon cells, without PBL conditioned medium

Row | EC50 (TLR7 receptor) | SMILES | also measured
1 | 933 nM | Nc1nc(C2CC2)cc2c1[nH]c(=O)n2Cc1ccccc1 [Example 1, 4-Amino-1-benzyl-6-cyclopropyl-1,3-dihydro-imidazo[4,5-c]pyridin-2-one] | selectivity for the TLR7 receptor over all other known Toll-like Receptors [1]: selective; selectivity for the TLR7 receptor over MEK, CDK1, CDK2, JNK, MSK, MSK-1, SGK, AMPK, MLCK, CHK-2, PDE3, PDE4 and PDE5 [2]: selective
2 | 1540 nM | Cc1cc2c([nH]c(=O)n2Cc2ccccc2)c(N)n1 [Example 2, 4-Amino-1-benzyl-6-methyl-1,3-dihydro-imidazo[4,5-c]pyridin-2-one] | selectivity for the TLR7 receptor over all other known Toll-like Receptors [1]: selective; selectivity for the TLR7 receptor over MEK, CDK1, CDK2, JNK, MSK, MSK-1, SGK, AMPK, MLCK, CHK-2, PDE3, PDE4 and PDE5 [2]: selective
3 | 266 nM | Cc1nc(N)c2[nH]c(=O)n(Cc3ccccc3)c2c1C [Example 3, 1-Benzyl-4-amino-6,7-dimethyl-1,3-dihydro-imidazo[4,5-c]Pyridin-2-one] | 
4 | 497 nM | COC(=O)c1cc2c([nH]c(=O)n2Cc2ccccc2)c(N)n1 [Example 4, 4-Amino-1-benzyl-2-oxo-2,3-dihydro-1H-imidazo[4,5-c]pyridine-6-carboxylic acid methyl ester] | 
5 | 240 nM | Nc1nc(-c2ncco2)cc2c1[nH]c(=O)n2Cc1ccccc1 [Example 12, 4-Amino-1-benzyl-6-oxazol-2-yl-1,3-dihydro-imidazo[4,5-c]pyridin-2-one] | selectivity for the TLR7 receptor over all other known Toll-like Receptors [1]: selective; selectivity for the TLR7 receptor over MEK, CDK1, CDK2, JNK, MSK, MSK-1, SGK, AMPK, MLCK, CHK-2, PDE3, PDE4 and PDE5 [2]: selective; selectivity for the TLR7 receptor over MAP (mitogen-activated protein kinase) [3]: selective
6 | 955 nM | COCCOc1cc2c([nH]c(=O)n2Cc2ccccc2)c(N)n1 [Example 17, 4-Amino-1-benzyl-6-(2-methoxy-ethoxy)-1,3-dihydro-imidazo[4,5-c]pyridin-2-one] | 
7 | 700 nM | CCc1coc(-c2cc3c([nH]c(=O)n3Cc3ccc(C)nc3)c(N)n2)n1 [Example 20, 4-Amino-6-(4-ethyl-oxazol-2-yl)-1-(6-methyl-pyridin-3-ylmethyl)-1,3-dihydro-imidazo[4,5-c]pyridin-2-one] | 
8 | 215 nM | Nc1nc(-c2ncc[nH]2)cc2c1[nH]c(=O)n2Cc1ccccc1 [Example 21, 4-Amino-1-benzyl-6-(1H-imidazol-2-yl)-1,3-dihydro-imidazo[4,5-c]pyridin-2-one] | 
9 | 450 nM | Nc1nc(-c2ccccc2F)cc2c1[nH]c(=O)n2Cc1ccccc1 [Example 22, 4-Amino-1-benzyl-6-(2-fluoro-phenyl)-1,3-dihydro-imidazo[4,5-c]pyridin-2-one] | 
10 | 1080 nM | CCCc1cc2c([nH]c(=O)n2Cc2ccccc2)c(N)n1 [Example 23] | 
11 | 1600 nM | CC(C)c1cc2c([nH]c(=O)n2Cc2ccccc2)c(N)n1 [Example 24] | 
12 | 1000 nM | Cc1cc2c([nH]c(=O)n2Cc2cccc(C(F)(F)F)c2)c(N)n1 [Example 25] | 
13 | 453 nM | Cc1cc2c([nH]c(=O)n2Cc2cccc(F)c2)c(N)n1 [Example 27] | 
14 | 3260 nM | Nc1nc2c(c3c1[nH]c(=O)n3Cc1ccccc1)CCC2 [Example 31] | 
15 | 1710 nM | Nc1nc(-c2ccccn2)cc2c1[nH]c(=O)n2Cc1ccccc1 [Example 32] | 
16 | 1300 nM | COCCNCc1cc2c([nH]c(=O)n2Cc2ccccc2)c(N)n1 [Example 34] | 
17 | 368 nM | CC(=O)c1cc2c([nH]c(=O)n2Cc2ccccc2)c(N)n1 [Example 36] | 

Row | EC50 (TLR7 receptor) | SMILES | also measured
18 | 786 nM | CCc1cc2c([nH]c(=O)n2Cc2ccccc2)c(N)n1 [Example 37] | 
19 | 848 nM | Nc1nc(C(F)F)cc2c1[nH]c(=O)n2Cc1ccccc1 [Example 38] | 
20 | 2200 nM | N#Cc1cc2c([nH]c(=O)n2Cc2ccccc2)c(N)n1 [Example 39] | 
21 | 427 nM | COCc1cc2c([nH]c(=O)n2Cc2ccccc2)c(N)n1 [Example 40] | 
22 | 2170 nM | COCCNc1cc2c([nH]c(=O)n2Cc2ccccc2)c(N)n1 [Example 49] | 
23 | 1970 nM | Nc1nccc2c1[nH]c(=O)n2Cc1ccccc1 [Example 50] | 
24 | 302 nM | Nc1nc(C(F)(F)F)cc2c1[nH]c(=O)n2Cc1ccc(F)cc1 [Example 54] | 
25 | 2000 nM | COCCn1c(=O)[nH]c2c(N)nc(C(F)(F)F)cc21 [Example 55] | 
26 | 445 nM | Nc1nc(C(F)(F)F)cc2c1[nH]c(=O)n2Cc1ccc(Cl)nc1 [Example 60] | 
27 | 1680 nM | Cc1nc(N)c2[nH]c(=O)n(Cc3ccc(F)cc3)c2c1C [Example 61] | 
28 | 656 nM | Nc1nc(C(F)(F)F)cc2c1[nH]c(=O)n2Cc1ccc(Br)cc1 [Example 70] | 
29 | 100 nM | Cc1ccc(Cn2c(=O)[nH]c3c(N)nc(-c4cnco4)cc32)cn1 [Example 78] | 
30 | 127 nM | Cc1ccc(Cn2c(=O)[nH]c3c(N)nc(-c4ncno4)cc32)cn1 [Example 82] | 
31 | 470 nM | Nc1nc(-n2cccn2)cc2c1[nH]c(=O)n2Cc1ccccc1 [Example 83] | 
32 | 550 nM | Cc1cnn(-c2cc3c([nH]c(=O)n3Cc3ccccc3)c(N)n2)c1 [Example 86] | 
33 |  | CC(C)Cn1cnc2c(N)nc3ccccc3c21 [Imiquimod] | direct response of HCV replicon containing cells to the TLR agonist [4]: do not respond directly

From patent US7691877B2, “Pharmaceuticals” (priority 2006, dated 2010)
